“Also recorded” adds a separate entry of the source. Counter-ions that a name gives are not always drawn.
What was measured:
[1] = In vivo tolerability and body weight with TKI and ceDNA; design: species or system mice
Experimental: The immunosuppressant selected for initial in vivo cytokine/chemokine panel assays were afatinib, brigatinib, dacomitinib, dasatinib, saracatinib, fostamatinib, cerdulatinib, ruxolitinib, and cobimetinib. […] The high and low dose concentrations immunosuppressants are as follows: afatinib (H: 200 mg/kg/day; L: 25 mg/kg/day), brigatinib (H: 50 mg/kg/day; L: 10 mg/kg/day), dacomitinib (H: 30 mg/kg/day; L: 10 mg/kg/day), dasatinib (H: 30 mg/kg/day; L: 10 mg/kg/day), saracatinib (H: 50 mg/kg/day; L: 10 mg/kg/day), fostamatinib (H: 500 mg/kg/day; L: 100 mg/kg/day), cerdulatinib (H: 30 mg/kg/day; L: 5 mg/kg/day), ruxolitinib (H: 300 mg/kg/day; L: 60 mg/kg/day) and cobimetinib (H: 10 mg/kg/day; L: 3 mg/kg/day). Formulations were mixed by pipetting prior to administration to distribute particulates of oral gavage suspension. TKI or vehicle for Groups 3-24 were dosed on Days -2, -1, 0 and 1 by oral gavage at 10 mL/kg. TKI for Group 25 were dosed on Days -2, -1, 0 and 1 by oral gavage at 20 mL/kg. TKI for Group 26 was dosed on Days -2, -1, 0 and 1 by intraperitoneal (IP) administration at 20 mL/kg. […] Otherwise, TKIs were administered at approximately the same time each day ([…] dosed at 0.2 mg/kg on Day 0 for all experimental groups by intravenous administration via lateral tail vein. […] Polycytidylic acid potassium salt (PolyC) and […] […] Body weights for all animal were recorded.

[2] = test system: THP1-ISG cells; experiment: THP1-ISG cell viability assay (ATP activity and LDH release); settings: 10 μM, 1.0 μM and 0.1 μM; 24 hours
[3] = test system: IRF-inducible luciferase reporter in RAW-ISG cells; experiment: IFN reporter assay in RAW-ISG cells; format: cell-based, murine; settings: for inhibitory effects on murine ISG system / induction of IRF: 0.1 μM, 1.0 μM and 10 μM, ceDNA
Experimental: Finally, IFN reporter assays were conducted in RAW-ISG cells. RAW-ISG cells are generated from the murine macrophage cell line by stable integration of an interferon regulatory factor (IRF)-inducible luciferase reporter construct. […] Another potent TKI compound selected for this assay was BMS-986165 which is a known antagonist of TYK2.

[4] = test system: serum proinflammatory cytokines and chemokines in response to ceDNA; experiment: In vivo cytokine/chemokine panel after ceDNA (Construct A) dosing; design: species or system mice; settings: for serum IP-10 level: repeat experiment; for cytokines expression after ceDNA dosing: LNP: Construct A at 0.2 mg/Kg
Experimental: The immunosuppressant selected for initial in vivo cytokine/chemokine panel assays were afatinib, brigatinib, dacomitinib, dasatinib, saracatinib, fostamatinib, cerdulatinib, ruxolitinib, and cobimetinib. […] The high and low dose concentrations immunosuppressants are as follows: afatinib (H: 200 mg/kg/day; L: 25 mg/kg/day), brigatinib (H: 50 mg/kg/day; L: 10 mg/kg/day), dacomitinib (H: 30 mg/kg/day; L: 10 mg/kg/day), dasatinib (H: 30 mg/kg/day; L: 10 mg/kg/day), saracatinib (H: 50 mg/kg/day; L: 10 mg/kg/day), fostamatinib (H: 500 mg/kg/day; L: 100 mg/kg/day), cerdulatinib (H: 30 mg/kg/day; L: 5 mg/kg/day), ruxolitinib (H: 300 mg/kg/day; L: 60 mg/kg/day) and cobimetinib (H: 10 mg/kg/day; L: 3 mg/kg/day). Formulations were mixed by pipetting prior to administration to distribute particulates of oral gavage suspension. TKI or vehicle for Groups 3-24 were dosed on Days -2, -1, 0 and 1 by oral gavage at 10 mL/kg. TKI for Group 25 were dosed on Days -2, -1, 0 and 1 by oral gavage at 20 mL/kg. TKI for Group 26 was dosed on Days -2, -1, 0 and 1 by intraperitoneal (IP) administration at 20 mL/kg. […] Otherwise, TKIs were administered at approximately the same time each day ([…] dosed at 0.2 mg/kg on Day 0 for all experimental groups by intravenous administration via lateral tail vein. Animals were monitored continuously while under anesthesia, during recovery and until mobile. […] Polycytidylic acid potassium salt (PolyC) and […] (Construct A) were used as controls. […] Body weights for all animal were recorded.

[5] = test system: luciferase expression of ceDNA (Construct A); experiment: In-life imaging (IVIS) of ceDNA luciferase expression; format: in vivo, mice; settings: day 6; compared among TKI groups
Experimental: Expression levels of ceDNA as detected by luciferase (IVIS for luciferase) was measured at day 6, 14, 21, 28, and 35 in all groups (FIG. 8). Polycytidylic acid potassium salt (PolyC) and […] ceDNA (Construct A) were used as controls. Both polyC and Construct A were formulated in LNP and used as controls for in groups in which no ceDNA was dosed to evaluate the effect of LNPs. Body weights for all animal were recorded.

[6] = test system: immune response to ceDNA (Construct A: hAAT-Luciferase); experiment: ceDNA dose escalation study with TKI; format: in vivo; settings: 2 mg/kg ceDNA formulated in LNP; ruxolitinib 300 mg/kg
Experimental: An in vivo study with dose escalation of ceDNA was conducted to evaluate the effect of ceDNA at a high dose in the presence of the TKI (ruxolitinib at a high dose of 300 mg/kg and fostamatinib at a high dose of 500 mg/kg). In this study, four experimental groups were dosed with increasing doses of 0.2 mg/kg, 0.5 mg/kg, 1 mg/kg, or 2 mg/kg of ceDNA (Construct A: hAAT-Luciferase) formulated in LNPs.

[7] = test system: immune response to ceDNA; format: in vivo, mice; settings: −0.5 h and 5 h regimen compared to −48 hr, −24 h, −1.5 h and 24 h regimen; 300 mg/kg
From the text: FIG. 14 depicts two different dosing time arrangements of TKI treatment. […]. […]

[8] = 0.2 mg/kg ceDNA, blood 6 hours post dose
[9] = high dose of TKI with Construct A:LNP vehicle

With `CN(C)C/C=C/C(=O)Nc1cc2c(Nc3ccc(F)c(Cl)c3)ncnc2cc1O[C@H]1CCOC1` [afatinib, Afatinib/ Afatinib Dimaleate] the body loss ([1]; with ceDNA, particularly at a high dose) was 7-8%.

For `CNC(=O)c1cc(Oc2ccc(NC(=O)Nc3ccc(Cl)c(C(F)(F)F)c3)cc2)ccn1` [sorafinib, Sorafenib], the “toxicity in vitro (ATP activity)” value [2] was “mostly non-toxic”.

For `[2H]C([2H])([2H])NC(=O)c1nnc(NC(=O)C2CC2)cc1Nc1cccc(-c2ncn(C)n2)c1OC` [BMS-986165, BMS986165 Tyk2-IN-4], the “inhibitory effects, ranking among more than 30 compounds tested” value [3] was “most significant inhibitory effects” and the “inhibitory effects on murine ISG system / induction of IRF” value [3] was “significant inhibitory effects”.

In the case of `CCN(CC)CCNC(=O)c1c(C)[nH]c(/C=C2\C(=O)Nc3ccc(F)cc32)c1C` [sunitinib, Sunitinib], the “toxicity in vitro (ATP activity)” value [2] was “mostly non-toxic”.

With `N#CC[C@H](C1CCCC1)n1cc(-c2ncnc3[nH]ccc23)cn1` [ruxolitinib, Ruxolitinib/ Ruxolitinib phosphate/ S-ruxolitinib] the “inhibitory effects, ranking among more than 30 compounds tested” value [3] was “most significant inhibitory effects”, the “inhibitory effects on murine ISG system / induction of IRF” value [3] was “significant inhibitory effects” and the “serum MCP-1 level” value ([4]; 0.2 mg/kg ceDNA) was “significant reduction”. For the same compound, the “serum MIP-1α (CCL3) level” value ([4]; 0.2 mg/kg ceDNA) was “significant reduction”, the “serum MIP-1β (CCL4) level” value ([4]; 0.2 mg/kg ceDNA) was “significant reduction” and the “serum Rantes (CCL5) level” value ([4]; 0.2 mg/kg ceDNA) was “significant reduction”. The “suppressing cytokines and chemokine levels” value ([4]; 0.2 mg/kg ceDNA) was “stood out”, the “type I and type II IFNs responses” value ([4]; 0.2 mg/kg ceDNA) was “effectively attenuated” and the “serum interferon-α (IFN-α) level” value [4, 8] was “significant reductions; also recorded: successfully exerted immunosuppressive effects”. For the same compound, the “serum interferon-γ (IFN-γ) level” value [4, 8] was “significant reductions; also recorded: successfully exerted immunosuppressive effects”, the “serum interleukin-6 (IL-6) level” value [4, 8] was “significant reductions; also recorded: successfully exerted immunosuppressive effects” and the “serum interleukin-18 (IL-18) level” value [4, 8] was “significant reductions; also recorded: successfully exerted immunosuppressive effects”. For the same compound, the serum level [4, 8] was “significant reductions”, the “serum tumor necrosis factor-α (TNF-α) level” value [4, 8] was “significant reductions; also recorded: successfully exerted immunosuppressive effects” and the “serum IP-10 level” value ([4]; 0.2 mg/kg ceDNA) was “successfully exerted immunosuppressive effects”. For the same compound, the “cytokines expression after ceDNA dosing” value [4] was “drastically reduce”, the “serum IFN-α level” value [4, 9] was “no detectable” and the “serum IFN-γ level” value [4, 9] was “no detectable”. For the same compound, the “serum IL-6 level” value [4, 9] was “no detectable”, the body weight change ([1]; TKI with 0.2 mg/kg ceDNA) was “a certain level of weight gains” and the “ceDNA transgene expression levels” value [5] was “highest level”. For the same compound, the tolerability [6] was “well tolerated” and the immunosuppression [7] was “improved immunosuppression”.

In the case of `c1cn2cc(-c3ccc4cn[nH]c4c3)nc(Nc3ccc(N4CCOCC4)cc3)c2n1` [entoplestinib, Entosplestinib], the “toxicity in vitro (ATP activity)” value [2] was “mostly non-toxic”.

In the case of `Cc1ccc(NC(=O)c2ccc(CN3CCN(C)CC3)cc2)cc1Nc1nccc(-c2cccnc2)n1` [imatinib, Imatinib/ Imatinib mesylate], the “toxicity in vitro (ATP activity)” value [2] was “mostly non-toxic”.

With `Cl.Cn1cc(-c2nc(N[C@@H]3CCCC[C@@H]3N)c(F)c3c2C(=O)NC3)cn1` [TAK-659] the “toxicity in vitro (ATP activity)” value [2] was “mostly non-toxic”.

With `COc1cc(Nc2ncc(F)c(Nc3ccc4c(n3)N(COP(=O)(O)O)C(=O)C(C)(C)O4)n2)cc(OC)c1OC` [fostamatinib, Fostamatinib/ Fostamatinib disodium] the “inhibitory effects, ranking among more than 30 compounds tested” value [3] was “most significant inhibitory effects”, the “inhibitory effects on murine ISG system / induction of IRF” value [3] was “significant inhibitory effects” and the “suppressing cytokines and chemokine levels” value ([4]; 0.2 mg/kg ceDNA) was “stood out”. The “type I and type II IFNs responses” value ([4]; 0.2 mg/kg ceDNA) was “effectively attenuated”, the “serum interferon-α (IFN-α) level” value [4, 8] was “successfully exerted immunosuppressive effects” and the “serum interferon-γ (IFN-γ) level” value [4, 8] was “successfully exerted immunosuppressive effects”. The “serum interleukin-6 (IL-6) level” value [4, 8] was “successfully exerted immunosuppressive effects”, the “serum interleukin-18 (IL-18) level” value [4, 8] was “successfully exerted immunosuppressive effects” and the “serum tumor necrosis factor-α (TNF-α) level” value [4, 8] was “successfully exerted immunosuppressive effects”. For the same compound, the “serum IP-10 level” value ([4]; 0.2 mg/kg ceDNA) was “successfully exerted immunosuppressive effects” and the “cytokines expression after ceDNA dosing” value [4] was “drastically reduce”.
